Legend:
MCF-7 tumor cells = assay: Orthotopic MCF-7 breast cancer xenograft; format: in vivo, NOD/SCID mice
Method: (§1) The efficacy of GLR2007 was evaluated in human GBM and breast cancer orthotopic cell-line-derived xenografts in NOD/SCID mice (Shanghai Lingchang Biotechnology Co. Ltd, Shanghai, China) and BALB/c nude mice (Shanghai Sino-British SIPPR/BK Laboratory Animal Co. Ltd, Shanghai, China), and human lung, colorectal, and liver cancer subcutaneous cell-line-derived xenografts in BALB/c nude mice (Nanjing University National Resource Center, Nanjing, China, or Beijing Anikeeper Biotech Co., Beijing, China). Mice were maintained in humidity- and temperature-controlled conditions with food and water available ad libitum.
In two breast cancer orthotopic xenograft models, female NOD/SCID mice were subcutaneously implanted with an estrogen pellet (17β-estradiol; Innovative Research of America, Sarasota, FL, USA) one day before tumor inoculation. Mice were inoculated at 6–7 weeks old with 2×10^7 MCF-7 tumor cells plus Matrigel in a 1:1 ratio in PBS at a mammary fat pad or in the right flank. Randomization was performed when the mean tumor volume reached 135–138 mm^3.

Hep G2 = assay: Cell proliferation assay; format: cell-based, Homo sapiens; conditions: Hep G2, liver, hepatocellular carcinoma, 72 hours
Method: (§2) To quantify cell proliferation, either the nuclei of live cells were counted following staining with 4’,6-diamidino-2-phenylindole (DAPI; Sigma-Aldrich, Burlington, MA, USA), or metabolically active cells were detected using a CellTiter-Glo assay (Promega Corporation, Madison, WI, USA). Cells from a range of human and mammalian tumor cell lines (American Type Culture Collection, Manassas, VA, USA) were seeded at 4000 cells per well in 100 μL of culture medium in a 96-well plate and incubated overnight at 37°C with 5% CO2. […] In the DAPI staining method, cells were washed using 1× phosphate-buffered saline (PBS; Gibco Thermo Fisher Scientific, Waltham, MA, USA), fixed with 4% formaldehyde, permeabilized with 0.2% Triton X-100 (Sigma-Aldrich), washed again, and stained with 1 μg/mL DAPI to visualize cell nuclei. Cells were washed with 1× PBS three times, and 100 μL 1× PBS was added to each well. Plates were scanned using an IN Cell Analyzer 2200 (GE Healthcare Life Sciences, Chicago, IL, USA) and the number of cells per well was recorded. In the CellTiter-Glo assay, 60 μL of CellTiter-Glo luminescent solution was added to each well after incubation with the test compounds, and the assay plate was scanned using a Tecan Infinite M1000 PRO microplate reader (Tecan Group AG, Männedorf, Switzerland) to record luminescent signals.

BEL7405 = assay: Cell proliferation assay; format: cell-based, Homo sapiens; conditions: BEL7405, liver, hepatocellular carcinoma, 72 hours
Method: as §2

HL7702 = assay: Cell proliferation assay; format: cell-based, Homo sapiens; conditions: HL7702, liver, 72 hours
Method: as §2

Li-7 = assay: Cell proliferation assay; format: cell-based, Homo sapiens; conditions: Li-7, liver, hepatocellular carcinoma, 72 hours
Method: as §2

Du4475 = assay: Cell proliferation assay; format: cell-based, Homo sapiens; conditions: Du4475, breast carcinoma, 72 hours
Method: as §2

Daoy = assay: Cell proliferation assay; format: cell-based, Homo sapiens; conditions: brain, desmoplastic cerebellar medulloblastoma, 72 hours
Method: as §2

M059K = assay: Cell proliferation assay; format: cell-based, Homo sapiens; conditions: brain, glioblastoma, 72 hours
Method: as §2

SK-HEP-1 = assay: Cell proliferation assay; format: cell-based, Homo sapiens; conditions: SK-HEP-1, liver, hepatocellular carcinoma, 72 hours
Method: as §2

SNU-449 = assay: Cell proliferation assay; format: cell-based, Homo sapiens; conditions: SNU-449, liver, hepatocellular carcinoma, 72 hours
Method: as §2

A549 = assay: Cell proliferation assay; format: cell-based, Homo sapiens; conditions: A549, lung carcinoma, 72 hours
Method: as §2

NCI-H460 = assay: Cell proliferation assay; format: cell-based, Homo sapiens; conditions: NCI-H460, lung carcinoma, 72 hours
Method: as §2

HCT15 = assay: Cell proliferation assay; format: cell-based, Homo sapiens; conditions: HCT15, colorectal carcinoma, 72 hours
Method: as §2

NCI-H1915 = assay: Cell proliferation assay; format: cell-based, Homo sapiens; conditions: NCI-H1915, lung, NSCLC, 72 hours
Method: as §2

SK-N-BE(2) = assay: Cell proliferation assay; format: cell-based, Homo sapiens; conditions: neuroblastoma, 72 hours
Method: as §2

NCI-H1581 = assay: Cell proliferation assay; format: cell-based, Homo sapiens; conditions: NCI-H1581, lung, NSCLC, 72 hours
Method: as §2

BN2289 = assay: Subcutaneous BN2289 glioblastoma xenograft; format: in vivo, BALB/c nude mice; conditions: 28 days, measured day 21
Method: as §1, with “libitum. For subcutaneous models, female BALB/c nude mice were inoculated at 4–8 weeks old with 3×10^6–1×10^7 tumor cells (see Table 1 for xenograft model cell types) in the right flank for tumor development. Randomization was performed when the mean tumor volume reached 118–171 mm^3.” for “libitum.”

Hepa1-6 = assay: Cell proliferation assay; format: cell-based, Mus musculus; conditions: Hepa1-6, liver, hepatocellular carcinoma, 72 hours
Method: as §2

4T1 = assay: Cell proliferation assay; format: cell-based, Mus musculus; conditions: 4T1, breast carcinoma, 72 hours
Method: as §2

BNL CL.2 = assay: Cell proliferation assay; format: cell-based, Mus musculus; conditions: BNL CL.2, liver, normal, 72 hours
Method: as §2

Colon-26 = assay: Cell proliferation assay; format: cell-based, Mus musculus; conditions: Colon-26, colorectal carcinoma, 72 hours
Method: as §2

Glioma 261 = assay: Cell proliferation assay; format: cell-based, Mus musculus; conditions: Glioma 261, brain, murine glioma, 72 hours
Method: as §2

H22 = assay: Cell proliferation assay; format: cell-based, Mus musculus; conditions: H22, liver, hepatocellular carcinoma, 72 hours
Method: as §2

[1] = 25 mg/kg daily oral, 21 days, measured day 21, 8 mice
[2] = 25 mg/kg daily oral, 28 days, measured day 25, 10 mice

CCN1CCN(Cc2ccc(Nc3ncc(F)c(-c4cc(F)c5nc(C)n(C(C)C)c5c4)n3)nc2)CC1 [Abemaciclib, abemaciclib, reference compound]
TGI (%) (MCF-7 tumor cells; [1]): 33.0%
TGI (%) (MCF-7 tumor cells; [2]): 48.6%
IC50 (Hep G2; Homo sapiens, HepG2): 3200 nM
IC50 (BEL7405; Homo sapiens): 2140 nM
IC50 (HL7702; Homo sapiens, L02): 1720 nM
IC50 (Li-7; Homo sapiens): 6290 nM
IC50 (Du4475; Homo sapiens, DU-4475): 10000 nM
IC50 (Daoy; Homo sapiens): > 10000 nM
IC50 (M059K; Homo sapiens): 871 nM
IC50 (SK-HEP-1; Homo sapiens, SK-HEP1): 6 nM
IC50 (SNU-449; Homo sapiens): 159 nM
IC50 (A549; Homo sapiens): 104 nM
IC50 (NCI-H460; Homo sapiens): 654 nM
IC50 (HCT15; Homo sapiens, HCT-15): 294 nM
IC50 (NCI-H1915; Homo sapiens): 324 nM
IC50 (SK-N-BE(2); Homo sapiens, SKNBE2, brain): 133 nM
IC50 (NCI-H1581; Homo sapiens): 3230 nM
TGI (%) (BN2289; 25 mg/kg daily oral): 24.9%
IC50 (Hepa1-6; Mus musculus): 1270 nM
IC50 (4T1; Mus musculus): 4790 nM
IC50 (BNL CL.2; Mus musculus): 10000 nM
IC50 (Colon-26; Mus musculus): > 10000 nM
IC50 (Glioma 261; Mus musculus): 2520 nM
IC50 (H22; Mus musculus): 3580 nM

CC1=Nc2c(F)cc(-c3nc(Nc4ccc(C5CCN(C)CC5)cn4)ncc3F)cc2C12CCCC2 [GLR2007]
TGI (%) (MCF-7 tumor cells; 10 mg/kg daily oral, 21 days, measured day 21, 8 mice): 43.5%
TGI (%) (MCF-7 tumor cells; [1]): 37.4%
TGI (%) (MCF-7 tumor cells; [2]): 61.4%
TGI (%) (MCF-7 tumor cells; 50 mg/kg daily oral, 21 days, measured day 21, 8 mice): 49.6%
IC50 (Hep G2): 2550 nM
IC50 (BEL7405): 1150 nM
IC50 (HL7702): 1940 nM
IC50 (Li-7): 712 nM
IC50 (Du4475): 2040 nM
IC50 (Daoy): 3960 nM
IC50 (M059K): 3250 nM
IC50 (SK-HEP-1): 36 nM
IC50 (SNU-449): 67 nM
IC50 (A549): 66 nM
IC50 (NCI-H460): 235 nM
IC50 (HCT15): 43 nM
IC50 (NCI-H1915): 53 nM
IC50 (SK-N-BE(2); brain): 130 nM
IC50 (NCI-H1581): 1120 nM
TGI (%) (BN2289; 5 mg/kg daily oral): 4.9%
TGI (%) (BN2289; 25 mg/kg daily oral): 39.4%
TGI (%) (BN2289; 50 mg/kg daily oral): 56.4%
IC50 (Hepa1-6): 526 nM
IC50 (4T1): 1940 nM
IC50 (BNL CL.2): 1940 nM
IC50 (Colon-26): 2120 nM
IC50 (Glioma 261): 1970 nM
IC50 (H22): 1840 nM
